Assay results reported in ChEMBL document CHEMBL3991601, “The target landscape of clinical kinase drugs” (Science, 2017).
Activity calls are given as the source filed them. Cut-off read from the data, not from the text of the source, for most assays here: actives have a measured Kd and inactives only a lower limit.
Note: in the data inactive means no Kd found up to 30 µM.

These compounds were tested against Serine/threonine-protein kinase 16 (Homo sapiens, UniProt O75716).
Sequence of Serine/threonine-protein kinase 16 (O75716 whole entry): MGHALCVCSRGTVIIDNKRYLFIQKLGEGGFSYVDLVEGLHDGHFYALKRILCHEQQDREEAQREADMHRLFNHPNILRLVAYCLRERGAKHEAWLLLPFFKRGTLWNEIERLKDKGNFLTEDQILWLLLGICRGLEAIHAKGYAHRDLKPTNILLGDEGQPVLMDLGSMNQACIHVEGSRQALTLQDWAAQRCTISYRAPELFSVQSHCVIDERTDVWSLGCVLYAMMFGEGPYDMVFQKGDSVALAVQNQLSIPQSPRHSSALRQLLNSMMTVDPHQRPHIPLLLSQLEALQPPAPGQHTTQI
For `N[C@@H]1CCCN(c2c(/C=C3\SC(=O)NC3=O)cccc2-c2ccccc2)C1`, the Kd was > 30 µM (inactive). With `Cc1ccc(S(=O)(=O)Nc2nc3ccccc3nc2Nc2ccc3nsnc3c2)cc1` the Kd was > 30 µM (inactive).

What follows are compounds tested against Tyrosine-protein kinase Yes (Homo sapiens, UniProt P07947).
Sequence of Tyrosine-protein kinase Yes (P07947 whole entry): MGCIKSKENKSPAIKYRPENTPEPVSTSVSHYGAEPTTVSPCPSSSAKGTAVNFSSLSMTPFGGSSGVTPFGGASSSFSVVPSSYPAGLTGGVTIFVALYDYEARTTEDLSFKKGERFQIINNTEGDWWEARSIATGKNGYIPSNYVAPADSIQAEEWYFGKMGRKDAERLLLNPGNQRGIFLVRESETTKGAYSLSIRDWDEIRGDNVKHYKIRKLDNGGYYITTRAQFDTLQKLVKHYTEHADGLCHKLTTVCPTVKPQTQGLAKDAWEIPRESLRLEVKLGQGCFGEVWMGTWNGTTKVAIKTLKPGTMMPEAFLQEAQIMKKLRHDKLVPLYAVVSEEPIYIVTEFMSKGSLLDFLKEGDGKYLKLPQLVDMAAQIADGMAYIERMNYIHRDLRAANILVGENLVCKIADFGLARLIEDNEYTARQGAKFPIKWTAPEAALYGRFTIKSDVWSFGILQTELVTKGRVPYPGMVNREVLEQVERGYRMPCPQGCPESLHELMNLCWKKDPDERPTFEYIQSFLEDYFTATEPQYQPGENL
`N[C@@H]1CCCN(c2c(/C=C3\SC(=O)NC3=O)cccc2-c2ccccc2)C1` was tested, and the Kd was > 30 µM (inactive). In the case of `Cc1ccc(S(=O)(=O)Nc2nc3ccccc3nc2Nc2ccc3nsnc3c2)cc1`, the Kd is reported as > 30 µM (inactive).

Each compound was assayed against T1, Ferrochelatase, mitochondrial (Homo sapiens, UniProt P22830).
T1 sequence (P22830 whole entry): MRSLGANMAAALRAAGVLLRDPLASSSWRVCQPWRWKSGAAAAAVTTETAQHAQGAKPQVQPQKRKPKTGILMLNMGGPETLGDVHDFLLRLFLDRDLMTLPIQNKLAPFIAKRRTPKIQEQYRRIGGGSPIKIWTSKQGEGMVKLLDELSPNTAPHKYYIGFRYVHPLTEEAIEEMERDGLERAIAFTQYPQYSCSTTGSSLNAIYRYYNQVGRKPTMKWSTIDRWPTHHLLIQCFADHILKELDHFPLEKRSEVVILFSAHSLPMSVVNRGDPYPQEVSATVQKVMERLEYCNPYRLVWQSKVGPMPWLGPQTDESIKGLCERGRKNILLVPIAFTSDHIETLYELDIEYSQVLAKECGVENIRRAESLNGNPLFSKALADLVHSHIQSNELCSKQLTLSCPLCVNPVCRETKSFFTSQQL
`N[C@@H]1CCCN(c2c(/C=C3\SC(=O)NC3=O)cccc2-c2ccccc2)C1` was tested, and the Kd was > 30 µM (inactive). For `Cc1ccc(S(=O)(=O)Nc2nc3ccccc3nc2Nc2ccc3nsnc3c2)cc1`, the Kd was > 30 µM (inactive).

The compounds below were run against Proto-oncogene tyrosine-protein kinase Src (Homo sapiens, UniProt P12931).
With `N[C@@H]1CCCN(c2c(/C=C3\SC(=O)NC3=O)cccc2-c2ccccc2)C1` the Kd was > 30 µM (inactive). `Cc1ccc(S(=O)(=O)Nc2nc3ccccc3nc2Nc2ccc3nsnc3c2)cc1` was tested, and the Kd was > 30 µM (inactive).

These compounds were tested against T2, Ras-related protein Rab-27A (Homo sapiens, UniProt P51159).
T2 sequence (P51159 whole entry): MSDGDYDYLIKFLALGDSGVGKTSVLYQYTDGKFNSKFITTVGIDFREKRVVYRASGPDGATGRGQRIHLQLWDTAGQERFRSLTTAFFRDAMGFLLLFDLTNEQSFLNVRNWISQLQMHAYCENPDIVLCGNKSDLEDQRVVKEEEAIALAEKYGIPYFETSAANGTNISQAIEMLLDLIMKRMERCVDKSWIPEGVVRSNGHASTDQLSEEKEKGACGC
With `N[C@@H]1CCCN(c2c(/C=C3\SC(=O)NC3=O)cccc2-c2ccccc2)C1` the Kd was > 30 µM (inactive). `Cc1ccc(S(=O)(=O)Nc2nc3ccccc3nc2Nc2ccc3nsnc3c2)cc1` was tested, and the Kd was > 30 µM (inactive).

These compounds were tested against T3, DNA replication licensing factor MCM4 (Homo sapiens, UniProt P33991).
T3 sequence (P33991 whole entry): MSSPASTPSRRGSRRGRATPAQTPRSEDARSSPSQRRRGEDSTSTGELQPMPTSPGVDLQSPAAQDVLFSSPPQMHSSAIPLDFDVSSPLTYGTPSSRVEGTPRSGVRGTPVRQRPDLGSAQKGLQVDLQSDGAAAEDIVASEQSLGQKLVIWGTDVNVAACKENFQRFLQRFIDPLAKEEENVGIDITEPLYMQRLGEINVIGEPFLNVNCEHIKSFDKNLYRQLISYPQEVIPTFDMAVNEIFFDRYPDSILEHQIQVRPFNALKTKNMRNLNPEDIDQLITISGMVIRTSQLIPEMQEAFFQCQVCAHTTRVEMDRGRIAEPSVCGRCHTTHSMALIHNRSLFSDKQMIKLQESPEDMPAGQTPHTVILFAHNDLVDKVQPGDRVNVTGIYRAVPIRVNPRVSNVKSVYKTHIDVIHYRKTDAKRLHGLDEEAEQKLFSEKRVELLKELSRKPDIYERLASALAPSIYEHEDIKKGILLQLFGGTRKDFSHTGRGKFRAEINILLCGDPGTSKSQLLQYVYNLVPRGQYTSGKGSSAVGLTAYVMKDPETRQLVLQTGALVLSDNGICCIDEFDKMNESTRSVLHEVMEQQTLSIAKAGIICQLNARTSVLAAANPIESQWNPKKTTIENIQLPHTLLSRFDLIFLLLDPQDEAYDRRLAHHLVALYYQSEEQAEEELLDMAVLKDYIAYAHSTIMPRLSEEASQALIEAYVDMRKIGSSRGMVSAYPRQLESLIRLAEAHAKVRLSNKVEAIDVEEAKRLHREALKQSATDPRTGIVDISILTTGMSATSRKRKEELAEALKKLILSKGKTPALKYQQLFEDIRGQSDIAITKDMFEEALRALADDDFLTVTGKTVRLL
For `N[C@@H]1CCCN(c2c(/C=C3\SC(=O)NC3=O)cccc2-c2ccccc2)C1`, the Kd was > 30 µM (inactive). For `Cc1ccc(S(=O)(=O)Nc2nc3ccccc3nc2Nc2ccc3nsnc3c2)cc1`, the Kd was > 30 µM (inactive).

Each compound was assayed against Protein-tyrosine kinase 6 (Homo sapiens, UniProt Q13882).
Sequence of Protein-tyrosine kinase 6 (Q13882 whole entry): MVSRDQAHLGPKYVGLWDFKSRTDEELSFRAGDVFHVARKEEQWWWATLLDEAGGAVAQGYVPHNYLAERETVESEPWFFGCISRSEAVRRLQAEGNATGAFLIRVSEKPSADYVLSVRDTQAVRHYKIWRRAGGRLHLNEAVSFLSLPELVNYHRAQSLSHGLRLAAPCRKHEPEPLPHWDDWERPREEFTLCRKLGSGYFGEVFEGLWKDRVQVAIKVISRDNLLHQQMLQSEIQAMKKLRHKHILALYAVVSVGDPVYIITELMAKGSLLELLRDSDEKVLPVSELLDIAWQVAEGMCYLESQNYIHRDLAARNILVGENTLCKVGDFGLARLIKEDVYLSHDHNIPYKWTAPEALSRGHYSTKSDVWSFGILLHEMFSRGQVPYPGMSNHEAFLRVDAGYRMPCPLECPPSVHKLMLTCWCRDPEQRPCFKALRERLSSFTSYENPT
`N[C@@H]1CCCN(c2c(/C=C3\SC(=O)NC3=O)cccc2-c2ccccc2)C1` was tested, and the Kd was > 30 µM (inactive). In the case of `Cc1ccc(S(=O)(=O)Nc2nc3ccccc3nc2Nc2ccc3nsnc3c2)cc1`, the Kd is reported as > 30 µM (inactive).

What follows are compounds tested against Mitotic checkpoint serine/threonine-protein kinase BUB1 (Homo sapiens, UniProt O43683).
Sequence of Mitotic checkpoint serine/threonine-protein kinase BUB1 (O43683 whole entry): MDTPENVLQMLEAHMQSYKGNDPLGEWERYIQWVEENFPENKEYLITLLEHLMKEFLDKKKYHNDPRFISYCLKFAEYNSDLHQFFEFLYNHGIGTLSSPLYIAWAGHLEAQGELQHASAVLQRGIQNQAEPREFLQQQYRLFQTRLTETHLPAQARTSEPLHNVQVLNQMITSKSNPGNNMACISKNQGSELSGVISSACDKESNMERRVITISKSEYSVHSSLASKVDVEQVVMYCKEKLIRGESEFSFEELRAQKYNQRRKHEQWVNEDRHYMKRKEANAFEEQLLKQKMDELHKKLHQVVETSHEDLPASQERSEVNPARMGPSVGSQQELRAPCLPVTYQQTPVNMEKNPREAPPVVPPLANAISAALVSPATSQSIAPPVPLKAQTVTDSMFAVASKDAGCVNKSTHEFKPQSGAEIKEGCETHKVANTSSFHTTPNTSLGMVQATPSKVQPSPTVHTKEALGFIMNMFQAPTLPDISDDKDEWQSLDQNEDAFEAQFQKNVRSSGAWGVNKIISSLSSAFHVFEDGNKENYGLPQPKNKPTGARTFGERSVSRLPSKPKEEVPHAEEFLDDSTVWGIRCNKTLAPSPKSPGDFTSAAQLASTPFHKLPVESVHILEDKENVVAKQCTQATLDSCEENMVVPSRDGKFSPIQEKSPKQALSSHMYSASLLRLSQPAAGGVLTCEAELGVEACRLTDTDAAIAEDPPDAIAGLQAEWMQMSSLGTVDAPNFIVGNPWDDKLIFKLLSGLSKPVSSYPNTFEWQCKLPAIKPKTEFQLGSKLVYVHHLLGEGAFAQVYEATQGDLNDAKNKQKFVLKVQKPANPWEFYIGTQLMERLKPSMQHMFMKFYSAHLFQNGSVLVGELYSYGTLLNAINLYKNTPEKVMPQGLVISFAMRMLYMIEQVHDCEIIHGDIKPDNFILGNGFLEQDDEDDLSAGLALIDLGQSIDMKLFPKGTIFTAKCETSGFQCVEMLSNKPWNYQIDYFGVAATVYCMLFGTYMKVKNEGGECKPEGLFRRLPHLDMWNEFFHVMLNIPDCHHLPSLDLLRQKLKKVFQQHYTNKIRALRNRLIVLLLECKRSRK
In the case of `N[C@@H]1CCCN(c2c(/C=C3\SC(=O)NC3=O)cccc2-c2ccccc2)C1`, the Kd is reported as > 30 µM (inactive). With `Cc1ccc(S(=O)(=O)Nc2nc3ccccc3nc2Nc2ccc3nsnc3c2)cc1` the Kd was > 30 µM (inactive).

These compounds were tested against T4, ADP/ATP translocase 3 (Homo sapiens, UniProt P12236).
T4 sequence (P12236 whole entry): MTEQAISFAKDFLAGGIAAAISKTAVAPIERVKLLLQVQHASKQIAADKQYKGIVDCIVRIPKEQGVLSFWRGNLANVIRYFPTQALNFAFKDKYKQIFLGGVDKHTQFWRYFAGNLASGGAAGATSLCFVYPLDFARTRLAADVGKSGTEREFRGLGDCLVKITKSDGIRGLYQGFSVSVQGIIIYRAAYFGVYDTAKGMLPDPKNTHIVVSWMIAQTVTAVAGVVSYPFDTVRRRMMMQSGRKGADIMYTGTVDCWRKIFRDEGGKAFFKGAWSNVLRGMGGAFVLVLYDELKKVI
For `N[C@@H]1CCCN(c2c(/C=C3\SC(=O)NC3=O)cccc2-c2ccccc2)C1`, the Kd was > 30 µM (inactive). In the case of `Cc1ccc(S(=O)(=O)Nc2nc3ccccc3nc2Nc2ccc3nsnc3c2)cc1`, the Kd is reported as > 30 µM (inactive).

Each compound was assayed against Ras-related protein Rab-6A (Homo sapiens, UniProt P20340).
Sequence of Ras-related protein Rab-6A (P20340 whole entry): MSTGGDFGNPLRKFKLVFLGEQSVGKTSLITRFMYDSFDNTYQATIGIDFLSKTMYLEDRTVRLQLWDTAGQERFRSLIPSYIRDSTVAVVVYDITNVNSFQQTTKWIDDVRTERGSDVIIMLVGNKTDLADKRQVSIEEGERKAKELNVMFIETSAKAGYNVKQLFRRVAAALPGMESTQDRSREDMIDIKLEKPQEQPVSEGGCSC
For `N[C@@H]1CCCN(c2c(/C=C3\SC(=O)NC3=O)cccc2-c2ccccc2)C1`, the Kd was > 30 µM (inactive). `Cc1ccc(S(=O)(=O)Nc2nc3ccccc3nc2Nc2ccc3nsnc3c2)cc1` was tested, and the Kd was > 30 µM (inactive).

These compounds were tested against Rho-associated protein kinase 1 (Homo sapiens, UniProt Q13464).
Sequence of Rho-associated protein kinase 1 (Q13464 whole entry): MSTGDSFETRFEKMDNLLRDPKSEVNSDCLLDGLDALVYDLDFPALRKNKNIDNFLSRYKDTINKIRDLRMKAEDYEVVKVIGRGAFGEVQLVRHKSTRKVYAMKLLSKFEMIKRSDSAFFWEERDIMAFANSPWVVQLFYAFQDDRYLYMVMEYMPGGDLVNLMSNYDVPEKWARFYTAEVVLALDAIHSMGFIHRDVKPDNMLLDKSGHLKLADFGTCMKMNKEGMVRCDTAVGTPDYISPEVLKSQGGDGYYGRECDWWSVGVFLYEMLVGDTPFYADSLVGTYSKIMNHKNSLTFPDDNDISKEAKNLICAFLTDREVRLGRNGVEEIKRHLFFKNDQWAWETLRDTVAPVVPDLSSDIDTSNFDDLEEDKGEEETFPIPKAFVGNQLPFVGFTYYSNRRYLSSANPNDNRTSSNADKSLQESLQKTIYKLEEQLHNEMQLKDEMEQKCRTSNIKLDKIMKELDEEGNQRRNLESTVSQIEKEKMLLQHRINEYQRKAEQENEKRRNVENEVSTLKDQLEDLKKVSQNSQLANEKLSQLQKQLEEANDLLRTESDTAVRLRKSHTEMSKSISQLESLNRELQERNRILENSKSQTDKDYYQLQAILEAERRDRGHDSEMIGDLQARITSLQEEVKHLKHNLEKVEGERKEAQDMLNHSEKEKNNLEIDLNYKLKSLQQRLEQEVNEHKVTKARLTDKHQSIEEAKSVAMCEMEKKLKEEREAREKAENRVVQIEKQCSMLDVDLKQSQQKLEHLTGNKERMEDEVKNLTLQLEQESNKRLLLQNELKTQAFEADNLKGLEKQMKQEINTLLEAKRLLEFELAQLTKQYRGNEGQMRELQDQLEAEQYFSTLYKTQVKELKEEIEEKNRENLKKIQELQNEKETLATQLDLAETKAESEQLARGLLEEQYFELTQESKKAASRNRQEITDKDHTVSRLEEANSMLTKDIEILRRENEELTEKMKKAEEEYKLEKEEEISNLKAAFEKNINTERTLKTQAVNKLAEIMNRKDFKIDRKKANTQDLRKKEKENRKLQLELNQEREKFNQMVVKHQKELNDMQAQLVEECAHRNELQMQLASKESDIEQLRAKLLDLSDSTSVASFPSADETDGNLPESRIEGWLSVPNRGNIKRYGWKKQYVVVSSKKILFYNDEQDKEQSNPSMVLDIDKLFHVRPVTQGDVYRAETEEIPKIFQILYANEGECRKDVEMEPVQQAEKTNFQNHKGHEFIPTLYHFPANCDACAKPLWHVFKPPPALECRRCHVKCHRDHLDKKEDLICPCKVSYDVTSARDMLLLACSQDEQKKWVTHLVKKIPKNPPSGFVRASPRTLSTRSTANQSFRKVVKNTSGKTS
`N[C@@H]1CCCN(c2c(/C=C3\SC(=O)NC3=O)cccc2-c2ccccc2)C1` was tested, and the Kd was > 30 µM (inactive). `Cc1ccc(S(=O)(=O)Nc2nc3ccccc3nc2Nc2ccc3nsnc3c2)cc1` was tested, and the Kd was > 30 µM (inactive).

Each compound was assayed against Mitogen-activated protein kinase kinase kinase kinase 5 (Homo sapiens, UniProt Q9Y4K4).
Sequence of Mitogen-activated protein kinase kinase kinase kinase 5 (Q9Y4K4 whole entry): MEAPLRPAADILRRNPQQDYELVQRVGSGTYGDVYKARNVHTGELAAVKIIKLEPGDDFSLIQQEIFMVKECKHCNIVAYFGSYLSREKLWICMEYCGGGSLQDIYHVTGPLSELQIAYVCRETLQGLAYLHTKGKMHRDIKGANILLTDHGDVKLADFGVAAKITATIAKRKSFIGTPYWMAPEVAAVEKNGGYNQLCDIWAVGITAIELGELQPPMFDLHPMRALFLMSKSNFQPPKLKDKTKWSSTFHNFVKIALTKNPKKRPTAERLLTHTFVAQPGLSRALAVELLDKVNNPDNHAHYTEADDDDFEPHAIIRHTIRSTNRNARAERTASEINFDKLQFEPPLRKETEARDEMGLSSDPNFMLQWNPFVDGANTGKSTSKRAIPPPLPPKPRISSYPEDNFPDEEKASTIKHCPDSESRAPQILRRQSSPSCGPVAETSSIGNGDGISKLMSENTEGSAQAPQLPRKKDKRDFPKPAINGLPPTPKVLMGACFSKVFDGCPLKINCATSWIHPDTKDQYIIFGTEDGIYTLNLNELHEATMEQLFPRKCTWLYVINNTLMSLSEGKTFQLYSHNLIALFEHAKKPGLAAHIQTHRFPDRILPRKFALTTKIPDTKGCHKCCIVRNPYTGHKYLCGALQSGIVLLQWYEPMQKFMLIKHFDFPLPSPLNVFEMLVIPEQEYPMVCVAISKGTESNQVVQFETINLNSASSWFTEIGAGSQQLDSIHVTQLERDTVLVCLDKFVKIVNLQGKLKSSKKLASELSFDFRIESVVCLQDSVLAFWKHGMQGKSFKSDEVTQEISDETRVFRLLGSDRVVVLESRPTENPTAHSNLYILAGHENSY
In the case of `N[C@@H]1CCCN(c2c(/C=C3\SC(=O)NC3=O)cccc2-c2ccccc2)C1`, the Kd is reported as > 30 µM (inactive). `Cc1ccc(S(=O)(=O)Nc2nc3ccccc3nc2Nc2ccc3nsnc3c2)cc1` was tested, and the Kd was > 30 µM (inactive).

These compounds were tested against T5, Interleukin-1 receptor-associated kinase 3 (Homo sapiens, UniProt Q9Y616).
T5 sequence (Q9Y616 whole entry): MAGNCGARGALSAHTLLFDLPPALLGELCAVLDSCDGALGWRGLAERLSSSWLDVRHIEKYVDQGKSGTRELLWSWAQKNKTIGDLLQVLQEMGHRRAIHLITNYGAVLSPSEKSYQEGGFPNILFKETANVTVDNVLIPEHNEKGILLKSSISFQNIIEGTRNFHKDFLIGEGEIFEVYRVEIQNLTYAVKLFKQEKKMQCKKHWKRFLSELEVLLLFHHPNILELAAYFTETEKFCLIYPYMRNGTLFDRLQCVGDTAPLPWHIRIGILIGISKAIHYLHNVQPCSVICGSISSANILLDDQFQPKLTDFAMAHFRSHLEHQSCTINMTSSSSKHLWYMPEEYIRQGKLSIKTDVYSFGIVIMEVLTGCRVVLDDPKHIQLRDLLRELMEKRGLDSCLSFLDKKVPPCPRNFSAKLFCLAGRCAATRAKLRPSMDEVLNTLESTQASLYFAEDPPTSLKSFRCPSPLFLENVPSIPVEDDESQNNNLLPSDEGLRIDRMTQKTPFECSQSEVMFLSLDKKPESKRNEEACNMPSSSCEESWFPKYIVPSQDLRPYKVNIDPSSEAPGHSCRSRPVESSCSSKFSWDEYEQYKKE
`N[C@@H]1CCCN(c2c(/C=C3\SC(=O)NC3=O)cccc2-c2ccccc2)C1` was tested, and the Kd was > 30 µM (inactive). With `Cc1ccc(S(=O)(=O)Nc2nc3ccccc3nc2Nc2ccc3nsnc3c2)cc1` the Kd was > 30 µM (inactive).
